{"source": "ChEMBL document CHEMBL4118264", "about": "“Selective synthesis of 7-O-substituted luteolin derivatives and their melanonenesis and proliferation inhibitory activity in B16 melanoma cells” (2018)", "format_in_all_cases": "functional", "key": {"B16 [1]": {"test_system": "B16", "experiment": "Inhibition of melanogenesis in mouse B16 cells assessed as intracellular melanogenesis activity at 50 uM after 72 hrs relative to control", "design": "scale not given: the % may be the effect or the level left"}, "B16 [2]": {"test_system": "B16", "experiment": "Inhibition of melanogenesis in mouse B16 cells assessed as intracellular melanogenesis activity at 12.5 uM after 72 hrs relative to control", "design": "scale not given: the % may be the effect or the level left"}, "B16 [3]": {"test_system": "B16", "experiment": "Inhibition of melanogenesis in mouse B16 cells assessed as intracellular melanogenesis activity at 25 uM after 72 hrs relative to control", "design": "scale not given: the % may be the effect or the level left"}, "B16 [4]": {"test_system": "B16", "experiment": "Antiproliferative activity against mouse B16 cells assessed as cell proliferation level at 12.5 uM after 72 hrs by MTT assay relative to control"}, "B16 [5]": {"test_system": "B16", "experiment": "Inhibition of melanogenesis in mouse B16 cells assessed as extracellular melanogenesis activity at 12.5 uM after 72 hrs relative to control", "design": "scale not given: the % may be the effect or the level left"}, "B16 [6]": {"test_system": "B16", "experiment": "Inhibition of melanogenesis in mouse B16 cells assessed as intracellular melanogenesis activity at 6.25 uM after 72 hrs relative to control", "design": "scale not given: the % may be the effect or the level left"}, "B16 [7]": {"test_system": "B16", "experiment": "Inhibition of melanogenesis in mouse B16 cells assessed as extracellular melanogenesis activity at 6.25 uM after 72 hrs relative to control", "design": "scale not given: the % may be the effect or the level left"}, "B16 [8]": {"test_system": "B16", "experiment": "Antiproliferative activity against mouse B16 cells assessed as cell proliferation level at 50 uM after 72 hrs by MTT assay relative to control"}, "B16 [9]": {"test_system": "B16", "experiment": "Inhibition of melanogenesis in mouse B16 cells assessed as extracellular melanogenesis activity at 25 uM after 72 hrs relative to control", "design": "scale not given: the % may be the effect or the level left"}, "B16 [10]": {"test_system": "B16", "experiment": "Inhibition of melanogenesis in mouse B16 cells assessed as extracellular melanogenesis activity at 50 uM after 72 hrs relative to control", "design": "scale not given: the % may be the effect or the level left"}, "B16 [11]": {"test_system": "B16", "experiment": "Antiproliferative activity against mouse B16 cells assessed as cell proliferation level at 6.25 uM after 72 hrs by MTT assay relative to control"}, "B16 [12]": {"test_system": "B16", "experiment": "Antiproliferative activity against mouse B16 cells assessed as cell proliferation level at 25 uM after 72 hrs by MTT assay relative to control"}, "B16 [13]": {"test_system": "B16", "experiment": "Inhibition of melanogenesis in mouse B16 cells assessed as extracellular melanogenesis activity at 730 uM after 72 hrs relative to control", "design": "scale not given: the % may be the effect or the level left"}, "B16 [14]": {"test_system": "B16", "experiment": "Inhibition of melanogenesis in mouse B16 cells assessed as intracellular melanogenesis activity at 730 uM after 72 hrs relative to control", "design": "scale not given: the % may be the effect or the level left"}, "B16 [15]": {"test_system": "B16", "experiment": "Antiproliferative activity against mouse B16 cells assessed as cell proliferation level at 730 uM after 72 hrs by MTT assay relative to control"}}, "data": [{"smiles": "O=c1cc(-c2ccc(O)c(O)c2)oc2cc(O)cc(O)c12", "note": "[LUTEOLIN]", "values": [{"measurement": "Activity", "setting": "B16 [1]", "value": 55, "unit": "%"}, {"measurement": "Activity", "setting": "B16 [2]", "value": 118, "unit": "%"}, {"measurement": "Activity", "setting": "B16 [3]", "value": 66, "unit": "%"}, {"measurement": "Activity", "setting": "B16 [4]", "value": 110, "unit": "%"}, {"measurement": "Activity", "setting": "B16 [5]", "value": 109, "unit": "%"}, {"measurement": "Activity", "setting": "B16 [6]", "value": 122, "unit": "%"}, {"measurement": "Activity", "setting": "B16 [7]", "value": 114, "unit": "%"}, {"measurement": "Activity", "setting": "B16 [8]", "value": 34, "unit": "%"}, {"measurement": "Activity", "setting": "B16 [9]", "value": 15, "unit": "%"}, {"measurement": "Activity", "setting": "B16 [10]", "value": 16, "unit": "%"}, {"measurement": "Activity", "setting": "B16 [11]", "value": 106, "unit": "%"}, {"measurement": "Activity", "setting": "B16 [12]", "value": 68, "unit": "%"}]}, {"smiles": "COc1cc(O)c2c(=O)cc(-c3ccc(O)c(O)c3)oc2c1", "values": [{"measurement": "Activity", "setting": "B16 [1]", "value": 50, "unit": "%"}, {"measurement": "Activity", "setting": "B16 [2]", "value": 87, "unit": "%"}, {"measurement": "Activity", "setting": "B16 [3]", "value": 50, "unit": "%"}, {"measurement": "Activity", "setting": "B16 [4]", "value": 85, "unit": "%"}, {"measurement": "Activity", "setting": "B16 [5]", "value": 51, "unit": "%"}, {"measurement": "Activity", "setting": "B16 [6]", "value": 108, "unit": "%"}, {"measurement": "Activity", "setting": "B16 [7]", "value": 107, "unit": "%"}, {"measurement": "Activity", "setting": "B16 [8]", "value": 41, "unit": "%"}, {"measurement": "Activity", "setting": "B16 [9]", "value": 14, "unit": "%"}, {"measurement": "Activity", "setting": "B16 [10]", "value": 16, "unit": "%"}, {"measurement": "Activity", "setting": "B16 [11]", "value": 98, "unit": "%"}, {"measurement": "Activity", "setting": "B16 [12]", "value": 55, "unit": "%"}]}, {"smiles": "OC[C@H]1O[C@@H](Oc2ccc(O)cc2)[C@H](O)[C@@H](O)[C@@H]1O", "note": "[ARBUTIN]", "values": [{"measurement": "Activity", "setting": "B16 [13]", "value": 45, "unit": "%"}, {"measurement": "Activity", "setting": "B16 [14]", "value": 89, "unit": "%"}, {"measurement": "Activity", "setting": "B16 [15]", "value": 105, "unit": "%"}]}]}
